Laboratory results published in patent EP4627105B1, “METHOD FOR IDENTIFYING A MODIFIED AMINO ACID DEGRON (MAAD)” (ETH Zurich, priority 2022, dated 2024).

Test system: K562 cells
Experiment: Fluorescent in-cell reporter (FLICR) protein stability assay: turnover of C-terminally amidated sfGFP after nucleofection, followed by flow cytometry
Assay type: cell-based, human
Conditions: for destabilization of sfGFP carrying a primary amide on its C-terminus (sfGFP-Pep1-Ser-NH2): Fig. 1C, inhibitor concentration not given; for Amidated sfGFP degradation: Fig. 2G
Experimental: HEK293T cells were cultured in DMEM containing Glutamax (Thermo Fisher Scientific) and K562 cells were cultured in RPMI 1640 containing Glutamax (Thermo Fisher Scientific) under standard conditions. Growth media were further supplemented with 10% (v/v) Fetal Bovine Serum (Thermo Fisher Scientific) and 100 U/ml Penicillin-Streptomycin (Thermo Fisher Scientific). Stably transduced cells were selected using 2 µg/ml Puromycin (Thermo Fisher Scientific), 500 µg/ml Gene-ticin (Thermo Fisher Scientific) or 10 µg/ml Blasticidin (Thermo Fisher Scientific) starting two days after transduction. Induction of doxycycline-dependent vectors was performed using 500 ng/ml doxycycline (Merck) every 48 hours. Cells were treated with epoxomicin (Merck), concanamycin A (Merck) or TAK243 (MedChem Express) as indicated.
For measuring stability of recombinant or semi-synthetic proteins, 1.5- 2.0 x 10^5 cells were nucleofected with 200 pmol of protein in 20 µl cuvettes using a 4D nucleofector device (Lonza) according to the manufacturer's recommendations. Following protein delivery, cells were left to recover at 37°C for 30-45 minutes before measuring initial mean fluorescence intensity values (t0) on a Attune NxT Flow Cytometer (Thermo Fisher Scientific). Subsequent measurements were performed at indicated time points. Baseline-fluorescence values of mock nucleofected cells receiving no protein were measured and subtracted for each time point and baseline-corrected fluorescence values were normalized to t0.
The effect of each modification on protein degradation was measured in the human erythroleukemia cell line K562, which allows for efficient and uniform protein delivery via nucleofection.
Lastly, conjugates of mTagBFP2 and mCherry carrying a primary C-terminal amide were also efficiently degraded when delivered to human embryonic kidney-derived HEK293T cells (Fig.1D and Fig 1E) establishing that C-terminal amidation induces protein degradation in different amino acid-, protein- and cell contexts.
The effect of each modification on protein degradation in the human erythroleukemia cell line K562 was measured. A fluorescent in-cell reporter assay was performed, in which individual semi-synthetic proteins were introduced by electroporation into human cells and their clearance over time was followed by flow cytometry.
This implies that C-terminal amide-bearing proteins (CTAPs) are actively cleared from cells by the ubiquitin proteasome system. CTAP forms of both mCherry and mTagBFP2, but not their unmodified counterparts, were also efficiently degraded when delivered to human embryonic kidney-derived HEK293T cells, as shown in Fig. 2H (see also the explanations above relating to Fig. 1E). The presence of a C-terminal amide is therefore sufficient to induce protein degradation in different peptide-, protein- and cell contexts.

SMILES | destabilization of sfGFP carrying a primary amide on its C-terminus (sfGFP-Pep1-Ser-NH2) | Amidated sfGFP degradation (TAK243 (1 µM) upon sfGFP delivery) | Amidated sfGFP degradation (epoxomicin (500 nM) upon sfGFP delivery) | Amidated sfGFP degradation (Folimycin (100 nM) upon sfGFP delivery)
NS(=O)(=O)OC[C@H]1C[C@@H](Nc2ccnc3cc(-c4cccc(SC(F)(F)F)c4)nn23)[C@H](O)[C@@H]1O [TAK243] | fully blunted | prevented | – | –
CC[C@H](C)[C@H](NC(=O)[C@H]([C@@H](C)CC)N(C)C(C)=O)C(=O)N[C@H](C(=O)N[C@@H](CC(C)C)C(=O)[C@@]1(C)CO1)[C@@H](C)O [epoxomicin] | fully blunted | – | prevented | –
C/C=C/[C@H]1O[C@@](O)([C@@H](C)[C@H](O)[C@H](C)[C@H]2OC(=O)/C(OC)=C/C(C)=C/[C@@H](C)[C@@H](O)[C@@H](CC)[C@@H](O)[C@H](C)C/C(C)=C/C=C/[C@@H]2OC)C[C@@H](O[C@H]2C[C@@H](O)[C@H](OC(N)=O)[C@@H](C)O2)[C@@H]1C [concanamycin A] | not by inhibition of lysosomal acidification | – | – | not by inhibition of lysosomal acidification
